{"source": "patent US10294234B2", "about": "“HIV inhibitor compounds” (priority 2017, dated 2019)", "key": {"[1]": {"tested_on": "HIV-1 (IIIB) in MT-4 cells", "test": "MT-4 HIV assay", "type": "cell-based", "conditions": "Human immunodeficiency virus 1, MT4, 120 h", "outline": "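MT-4 cells infected with HIV-1 IIIB (1:250 stock dilution) were incubated with 1:3 serially diluted compounds in RPMI with 10% FBS for 5 days at 37 °C. Cell Titer Glo luminescence was the readout. Plates included mock-infected wells, no-drug wells and 5 uM AZT controls.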"}, "[2]": {"method": "Liver Microsomal Stability Protocol\nTest compounds and one control compound (verapamil) were tested in 3 different species in duplicate sets.\nTest compound concentration: 1 uM; Protein concentration: 0.5 mg/mL (for dog, rat, and human liver microsomes); Cofactor: NADPH-Regenerating system (NRS) solution; Time-points: 2, 12, 25, 45, and 65 minutes.\nReaction composition (in each incubation well) contains:\nAfter plates were vortexed, they were centrifuged for 30 minutes to remove proteins. About 100 μL supernatant was removed to a new plate and diluted with 150 μL water. About 20 μL of the mixture was injected into LC/MS/MS system to monitor the compound's response. In vitro measured t1/2 was used to calculate Clint values."}, "[3]": {"conditions": "HIV-1 (IIIB), MT-4 cells, 5 days, Cell Titer Glo, read-out: EC50"}, "[4]": {"conditions": "human liver microsomes 0.5 mg/mL, 1 uM compound, NADPH"}, "[5]": {"conditions": "rat liver microsomes 0.5 mg/mL, 1 uM compound, NADPH"}}, "note": "Read-outs that look alike come from different tables or passages of the source.", "data": [{"compound": "COC(=O)N[C@H](C(=O)N[C@@H](Cc1ccc(C#Cc2cnc(N3C[C@H]4C[C@@H]3CN4C3COC3)nc2)cc1)[C@@H](O)CN(Cc1c(F)cc(-c2ccn(CC(F)F)n2)cc1F)NC(=O)[C@@H](NC(=O)OC)C(C)(C)C(F)(F)F)C(C)(C)C(F)(F)F", "note": "[Example 25, Methyl ((5S,8S,9S,14S)-11-(4-(1-(2,2-difluoroethyl)-1H-pyrazol-3-yl)-2,6-difluorobenzyl)-16,16,16-trifluoro-9-hydroxy-15,15-dimethyl-8-(4-((2-((1R,4R)-5-(oxetan-3-yl)-2,5-diazabicyclo[2.2.1]heptan-2-yl)pyrimidin-5-yl)ethynyl)benzyl)-3,6,13-trioxo-5-(1,1,1-trifluoro-2-methylpropan-2-yl)-2-oxa-4,7,11,12-tetraazahexadecan-14-yl)carbamate]", "values": [{"measurement": "EC50", "setting": "[1]; [3]", "result": 3.19, "unit": "nM"}, {"measurement": "Human Pred Cl.", "setting": "[2]; [4]", "result": 0.16, "unit": "L/H/kg"}, {"measurement": "Rat. Pred. Cl.", "setting": "[2]; [5]", "result": 1.41, "unit": "L/H/kg"}]}, {"compound": "COC(=O)N[C@H](C(=O)N[C@@H](Cc1ccc(C#Cc2ccc(N3CC4COCC(C3)N4)nc2)cc1)[C@@H](O)CN(Cc1c(F)cc(-c2ccn(C(F)F)n2)cc1F)NC(=O)[C@@H](NC(=O)OC)C(C)(C)C(F)(F)F)C(C)(C)C(F)(F)F", "note": "[Example 26, Methyl ((5S,8S,9S,14S)-8-(4-((6-(3-oxa-7,9-diazabicyclo[3.3.1]nonan-7-yl)pyridin-3-yl)ethynyl)benzyl)-11-(4-(1-(difluoromethyl)-1H-pyrazol-3-yl)-2,6-difluorobenzyl)-16,16,16-trifluoro-9-hydroxy-15,15-dimethyl-3,6,13-trioxo-5-(1,1,1-trifluoro-2-methylpropan-2-yl)-2-oxa-4,7,11,12-tetraazahexadecan-14-yl)carbamate]", "values": [{"measurement": "EC50", "setting": "[1]; [3]", "result": 4.24, "unit": "nM"}, {"measurement": "Human Pred Cl.", "setting": "[2]; human, microsomes", "result": "<0.11", "unit": "L/H/kg"}, {"measurement": "Rat. Pred. Cl.", "setting": "[2]; rat, microsomes", "result": 1.6, "unit": "L/H/kg"}]}, {"compound": "COC(=O)N[C@H](C(=O)N[C@@H](Cc1ccc(C#Cc2cnc(N3C[C@H]4C[C@@H]3CN4C3COC3)nc2)cc1)[C@@H](O)CN(Cc1c(F)cc(-c2ccn(C3CC3)n2)cc1F)NC(=O)[C@@H](NC(=O)OC)C(C)(C)C(F)(F)F)C(C)(C)C(F)(F)F", "note": "[Example 31, Methyl ((5S,8S,9S,14S)-11-(4-(1-cyclopropyl-1H-pyrazol-3-yl)-2,6-difluorobenzyl)-16,16,16-trifluoro-9-hydroxy-15,15-dimethyl-8-(4-((2-((1R,4R)-5-(oxetan-3-yl)-2,5-diazabicyclo[2.2.1]heptan-2-yl)pyrimidin-5-yl)ethynyl)benzyl)-3,6,13-trioxo-5-(1,1,1-trifluoro-2-methylpropan-2-yl)-2-oxa-4,7,11,12-tetraazahexadecan-14-yl)carbamate]", "values": [{"measurement": "EC50", "setting": "[1]; [3]", "result": 3.06, "unit": "nM"}, {"measurement": "Human Pred Cl.", "setting": "[2]; [4]", "result": "<0.11", "unit": "L/H/kg"}, {"measurement": "Rat. Pred. Cl.", "setting": "[2]; [5]", "result": 0.75, "unit": "L/H/kg"}]}, {"compound": "COC(=O)N[C@H](C(=O)N[C@@H](Cc1ccc(C#Cc2cnc(N3C[C@H]4C[C@@H]3CN4C3COC3)nc2)cc1)[C@@H](O)CN(Cc1c(F)cc(-c2ccn(C(F)F)n2)cc1F)NC(=O)[C@@H](NC(=O)OC)C(C)(C)C(F)(F)F)C(C)(C)C(F)(F)F", "note": "[Example 32, Methyl ((5S,8S,9S,14S)-11-(4-(1-(difluoromethyl)-1H-pyrazol-3-yl)-2,6-difluorobenzyl)-16,16,16-trifluoro-9-hydroxy-15,15-dimethyl-8-(4-((2-((1R,4R)-5-(oxetan-3-yl)-2,5-diazabicyclo[2.2.1]heptan-2-yl)pyrimidin-5-yl)ethynyl)benzyl)-3,6,13-trioxo-5-(1,1,1-trifluoro-2-methylpropan-2-yl)-2-oxa-4,7,11,12-tetraazahexadecan-14-yl)carbamate]", "values": [{"measurement": "EC50", "setting": "[1]; [3]", "result": 2.65, "unit": "nM"}, {"measurement": "Human Pred Cl.", "setting": "[2]; [4]", "result": "<0.11", "unit": "L/H/kg"}, {"measurement": "Rat. Pred. Cl.", "setting": "[2]; [5]", "result": 0.59, "unit": "L/H/kg"}]}, {"compound": "COC(=O)N[C@H](C(=O)N[C@@H](Cc1ccc(C#Cc2ccc(N3CC4COCC(C3)N4C)nc2)cc1)[C@@H](O)CN(Cc1c(F)cc(-c2ccn(C3CC3)n2)cc1F)NC(=O)[C@@H](NC(=O)OC)C(C)(C)C(F)(F)F)C(C)(C)C(F)(F)F", "note": "[Example 35]", "values": [{"measurement": "EC50", "setting": "[1]; [3]", "result": 3.54, "unit": "nM"}, {"measurement": "Dog. Pred. Cl.", "setting": "[2]; dog, microsomes", "result": 1.74, "unit": "L/H/kg"}, {"measurement": "Human Pred Cl.", "setting": "[2]; human, microsomes", "result": "<0.11", "unit": "L/H/kg"}, {"measurement": "Rat. Pred. Cl.", "setting": "[2]; rat, microsomes", "result": 2.1, "unit": "L/H/kg"}]}, {"compound": "COC(=O)N[C@H](C(=O)N[C@@H](Cc1ccc(C#Cc2cnc(N3CC4CCC(C3)N4C3COC3)nc2)cc1)[C@@H](O)CN(Cc1c(F)cc(-c2ccn(C3CC3)n2)cc1F)NC(=O)[C@@H](NC(=O)OC)C(C)(C)C(F)(F)F)C(C)(C)C(F)(F)F", "note": "[Example 37, Methyl ((5S,8S,9S,14S)-11-(4-(1-cyclopropyl-1H-pyrazol-3-yl)-2,6-difluorobenzyl)-16,16,16-trifluoro-9-hydroxy-15,15-dimethyl-8-(4-((2-(8-(oxetan-3-yl)-3,8-diazabicyclo[3.2.1]octan-3-yl)pyrimidin-5-yl)ethynyl)benzyl)-3,6,13-trioxo-5-(1,1,1-trifluoro-2-methylpropan-2-yl)-2-oxa-4,7,11,12-tetraazahexadecan-14-yl)carbamate]", "values": [{"measurement": "EC50", "setting": "[1]; [3]", "result": 6.75, "unit": "nM"}, {"measurement": "Human Pred Cl.", "setting": "[2]; human, microsomes", "result": "<0.11", "unit": "L/H/kg"}, {"measurement": "Rat. Pred. Cl.", "setting": "[2]; rat, microsomes", "result": 0.32, "unit": "L/H/kg"}]}, {"compound": "COC(=O)N[C@H](C(=O)N[C@@H](Cc1ccc(C#Cc2ccc(N3C[C@@H]4C[C@H]3CN4C3COC3)nc2)cc1)[C@@H](O)CN(Cc1c(F)cc(-c2ccn(C3CC3)n2)cc1F)NC(=O)[C@@H](NC(=O)OC)C(C)(C)C(F)(F)F)C(C)(C)C(F)(F)F", "note": "[Example 39, Methyl ((5S,8S,9S,14S)-11-(4-(1-cyclopropyl-1H-pyrazol-3-yl)-2,6-difluorobenzyl)-16,16,16-trifluoro-9-hydroxy-15,15-dimethyl-8-(4-((6-((1S,4S)-5-(oxetan-3-yl)-2,5-diazabicyclo[2.2.]heptan-2-yl)pyridin-3-yl)ethynyl)benzyl)-3,6,13-trioxo-5-(1,1,1-trifluoro-2-methylpropan-2-yl)-2-oxa-4,7,11,12-tetraazahexadecan-14-yl)carbamate]", "values": [{"measurement": "EC50", "setting": "[1]", "result": 2.57, "unit": "nM"}, {"measurement": "Human Pred Cl.", "setting": "[2]; [4]", "result": 0.15, "unit": "L/H/kg"}, {"measurement": "Rat. Pred. Cl.", "setting": "[2]; [5]", "result": 0.54, "unit": "L/H/kg"}]}, {"compound": "COC(=O)N[C@H](C(=O)N[C@@H](Cc1ccc(C#Cc2ccc(N3CC4CC(C3)N4C3COC3)nc2)cc1)[C@@H](O)CN(Cc1c(F)cc(-c2ccn(C3CC3)n2)cc1F)NC(=O)[C@@H](NC(=O)OC)C(C)(C)C(F)(F)F)C(C)(C)C(F)(F)F", "note": "[Example 40, Methyl ((5S,8S,9S,14S)-11-(4-(1-cyclopropyl-1H-pyrazol-3-yl)-2,6-difluorobenzyl)-16,16,16-trifluoro-9-hydroxy-15,15-dimethyl-8-(4-((6-(6-(oxetan-3-yl)-3,6-diazabicyclo[3.1.1]heptan-3-yl)pyridin-3-yl)ethynyl)benzyl)-3,6,13-trioxo-5-(1,1,1-trifluoro-2-methylpropan-2-yl)-2-oxa-4,7,11,12-tetraazahexadecan-14-yl)carbamate]", "values": [{"measurement": "EC50", "setting": "[1]; [3]", "result": 3.89, "unit": "nM"}, {"measurement": "Human Pred Cl.", "setting": "[2]; human, microsomes", "result": 0.13, "unit": "L/H/kg"}, {"measurement": "Rat. Pred. Cl.", "setting": "[2]; rat, microsomes", "result": 0.5, "unit": "L/H/kg"}]}, {"compound": "COC(=O)N[C@H](C(=O)N[C@@H](Cc1ccc(C#Cc2ccc(N3C[C@H]4C[C@@H]3CN4C3COC3)nc2)cc1)[C@@H](O)CN(Cc1c(F)cc(-c2ccn(CC(F)F)n2)cc1F)NC(=O)[C@@H](NC(=O)OC)C(C)(C)C(F)(F)F)C(C)(C)C(F)(F)F", "note": "[Example 43, Methyl ((5S,8S,9S,14S)-11-(4-(1-(2,2-difluoroethyl)-1H-pyrazol-3-yl)-2,6-difluorobenzyl)-16,16,16-trifluoro-9-hydroxy-15,15-dimethyl-8-(4-((6-((1R,4R)-5-(oxetan-3-yl)-2,5-diazabicyclo[2.2.1]heptan-2-yl)pyridin-3-yl)ethynyl)benzyl)-3,6,13-trioxo-5-(1,1,1-trifluoro-2-methylpropan-2-yl)-2-oxa-4,7,11,12-tetraazahexadecan-14-yl)carbamate]", "values": [{"measurement": "EC50", "setting": "[1]", "result": 2.87, "unit": "nM"}, {"measurement": "Dog. Pred. Cl.", "setting": "[2]; dog liver microsomes 0.5 mg/mL, 1 uM compound, NADPH", "result": 1.66, "unit": "L/H/kg"}, {"measurement": "Human Pred Cl.", "setting": "[2]; [4]", "result": 0.16, "unit": "L/H/kg"}, {"measurement": "Rat. Pred. Cl.", "setting": "[2]; [5]", "result": 1.01, "unit": "L/H/kg"}]}, {"compound": "COC(=O)N[C@H](C(=O)N[C@@H](Cc1ccc(C#Cc2ccc(N3CC4COCC(C3)N4C)nc2)cc1)[C@@H](O)CN(Cc1c(F)cc(-c2ccn(C(F)F)n2)cc1F)NC(=O)[C@@H](NC(=O)OC)C(C)(C)C(F)(F)F)C(C)(C)C(F)(F)F", "note": "[Example 44, Methyl ((5S,8S,9S,14S)-11-(4-(1-(difluoromethyl)-1H-pyrazol-3-yl)-2,6-difluorobenzyl)-16,16,16-trifluoro-9-hydroxy-15,15-dimethyl-8-(4-((6-(9-methyl-3-oxa-7,9-diazabicyclo[3.3.1]nonan-7-yl)pyridin-3-yl)ethynyl)benzyl)-3,6,13-trioxo-5-(1,1,1-trifluoro-2-methylpropan-2-yl)-2-oxa-4,7,11,12-tetraazahexadecan-14-yl)carbamate]", "values": [{"measurement": "EC50", "setting": "[1]; [3]", "result": 3.97, "unit": "nM"}, {"measurement": "Human Pred Cl.", "setting": "[2]; human, microsomes", "result": 0.13, "unit": "L/H/kg"}, {"measurement": "Rat. Pred. Cl.", "setting": "[2]; rat, microsomes", "result": 2.54, "unit": "L/H/kg"}]}, {"compound": "COC(=O)N[C@H](C(=O)N[C@@H](Cc1ccc(C#Cc2ccc(N3C[C@H]4C[C@@H]3CN4C3COC3)nc2)cc1)[C@@H](O)CN(Cc1c(F)cc(-c2ccn(C3CC3)n2)cc1F)NC(=O)[C@@H](NC(=O)OC)C(C)(C)C(F)(F)F)C(C)(C)C(F)(F)F", "note": "[Example 45, Methyl ((5S,8S,9S,14S)-11-(4-(1-cyclopropyl-1H-pyrazol-3-yl)-2,6-difluorobenzyl)-16,16,16-trifluoro-9-hydroxy-15,15-dimethyl-8-(4-((6-((1R,4R)-5-(oxetan-3-yl)-2,5-diazabicyclo[2.2.1]heptan-2-yl)pyridin-3-yl)ethynyl)benzyl)-3,6,13-trioxo-5-(1,1,1-trifluoro-2-methylpropan-2-yl)-2-oxa-4,7,11,12-tetraazahexadecan-14-yl)carbamate]", "values": [{"measurement": "EC50", "setting": "[1]", "result": 2.56, "unit": "nM"}, {"measurement": "Human Pred Cl.", "setting": "[2]; [4]", "result": "<0.11", "unit": "L/H/kg"}, {"measurement": "Rat. Pred. Cl.", "setting": "[2]; [5]", "result": 0.92, "unit": "L/H/kg"}]}]}
